Source: patent US20150209327A1, “METHODS FOR THE TREATMENT OF OBESITY USING APREMILAST” (Celgene Corporation, priority 2014, published 2015)

Key:
PDE1 = PDE1 enzyme assay; format: biochemical; conditions: at 10 μM
Method: (§1) PDE1, 2, 3 and 5 enzyme assays were prepared as described by Hidaka and Asano. Biochem. Biophys. Acta., 1976, 429:485; see also Nicholsen et al., Trends Pharmaco. Sci., 1991, 12:19. The PDE6 enzyme assay was prepared according to Baehr et al., J. Biol. Chem., 1979, 254:11669 and Gillespie et al., Mol. Pharm., 1989, 36: 773. The PDE7 enzyme assay was prepared according to Bloom and Beavo. Proc. Natl. Acad. Sci. USA, 1996, 93:14188-92.

PDE6 = biological target: T1, PDE6 (Bos taurus, UniProt P11541+P23439); assay: PDE6 enzyme assay; format: biochemical
T1 sequence (P11541 1-859): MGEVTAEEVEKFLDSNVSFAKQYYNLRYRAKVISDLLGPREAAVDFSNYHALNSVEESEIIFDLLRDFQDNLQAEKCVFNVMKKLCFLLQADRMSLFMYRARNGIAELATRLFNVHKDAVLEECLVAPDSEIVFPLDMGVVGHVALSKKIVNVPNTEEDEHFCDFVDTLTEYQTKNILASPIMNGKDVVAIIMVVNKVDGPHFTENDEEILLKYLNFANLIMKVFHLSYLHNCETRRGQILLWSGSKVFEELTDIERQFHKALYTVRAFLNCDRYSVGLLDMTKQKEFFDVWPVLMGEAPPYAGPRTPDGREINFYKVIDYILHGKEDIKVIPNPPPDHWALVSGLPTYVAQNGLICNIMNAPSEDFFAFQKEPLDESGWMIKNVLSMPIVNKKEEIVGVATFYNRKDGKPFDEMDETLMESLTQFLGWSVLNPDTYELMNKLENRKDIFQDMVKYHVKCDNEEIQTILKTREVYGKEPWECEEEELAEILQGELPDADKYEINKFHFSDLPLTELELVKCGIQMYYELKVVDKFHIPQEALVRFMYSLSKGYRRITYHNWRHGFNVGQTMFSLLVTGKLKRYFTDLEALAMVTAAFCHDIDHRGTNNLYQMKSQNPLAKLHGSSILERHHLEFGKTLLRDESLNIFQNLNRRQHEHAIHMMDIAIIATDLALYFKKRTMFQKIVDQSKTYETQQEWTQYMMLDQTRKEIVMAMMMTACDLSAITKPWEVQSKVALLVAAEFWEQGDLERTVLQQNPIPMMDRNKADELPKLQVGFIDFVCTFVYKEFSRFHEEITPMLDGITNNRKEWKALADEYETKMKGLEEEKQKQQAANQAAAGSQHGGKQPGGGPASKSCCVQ
T1 sequence (P23439 1-853): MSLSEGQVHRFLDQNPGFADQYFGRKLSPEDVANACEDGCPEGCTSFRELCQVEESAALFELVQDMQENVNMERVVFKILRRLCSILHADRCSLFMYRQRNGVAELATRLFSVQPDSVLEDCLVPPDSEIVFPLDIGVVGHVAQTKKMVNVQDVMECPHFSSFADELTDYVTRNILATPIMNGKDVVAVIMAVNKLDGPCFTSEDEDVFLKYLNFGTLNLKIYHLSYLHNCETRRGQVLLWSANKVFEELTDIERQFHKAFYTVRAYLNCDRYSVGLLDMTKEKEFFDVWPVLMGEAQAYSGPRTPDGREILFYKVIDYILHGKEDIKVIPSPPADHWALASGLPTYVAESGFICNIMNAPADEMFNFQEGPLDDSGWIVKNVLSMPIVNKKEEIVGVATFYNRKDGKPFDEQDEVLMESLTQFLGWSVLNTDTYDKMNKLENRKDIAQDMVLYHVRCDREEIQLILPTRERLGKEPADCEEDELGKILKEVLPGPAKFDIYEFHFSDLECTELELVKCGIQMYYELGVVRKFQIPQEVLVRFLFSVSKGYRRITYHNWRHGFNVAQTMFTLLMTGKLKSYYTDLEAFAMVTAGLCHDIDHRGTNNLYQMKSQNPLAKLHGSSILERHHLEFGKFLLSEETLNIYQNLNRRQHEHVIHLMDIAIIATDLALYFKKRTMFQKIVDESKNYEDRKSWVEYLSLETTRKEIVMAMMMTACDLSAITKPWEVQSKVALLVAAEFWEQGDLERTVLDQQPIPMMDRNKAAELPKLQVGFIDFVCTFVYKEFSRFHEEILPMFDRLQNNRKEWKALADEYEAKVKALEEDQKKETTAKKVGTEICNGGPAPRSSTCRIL
Method: as §1

[1] = tested on: Phosphodiesterase 4 enzyme; assay: Inhibition of PDE4 (enzyme purified from U937 human monocytic cells); format: biochemical; conditions: 1 μM cAMP, 45 min at 30° C.
Method: Inhibition of PDE4: Phosphodiesterase 4 enzyme was purified from U937 human monocytic cells by gel filtration chromatography, and phosphodiesterase reactions were carried out as previously described. See Muller et al., Bioorg. Med. Chem. Lett., 1998, 8(19): 2669-2674. Briefly, reactions were carried out in 96-well deep-well plates in 50 mM Tris HCl pH 7.5, 5 mM MgCl2, 1 μM cyclic adenosine monophosphate (cAMP), plus 10 nM [3H]-cAMP for 45 min at 30° C. The reactions were terminated by boiling, treated with 1 mg/ml snake venom, and separated using AG-1X8 ion exchange resin (BioRad). Reactions consumed less than 15% of available substrate.

PDE7 = PDE7 (Homo sapiens, UniProt Q13946); assay: PDE7 enzyme assay; format: biochemical
Method: as §1

TNF-α production = assay: Inhibition of TNF-α production in a mouse model; format: in vivo
From the text: (§2) The test methods were as described in WO 03/080049; Muller et al., J. Med. Chem., 1996, 39:3238; and Muller et al., Bioorg. Med. Chem. Lett., 1999, 9:1625-30.

[2] = tested on: TNF-α production in PBMCs; assay: Inhibition of TNF-α production in PBMCs; format: cell-based; conditions: PBMC
From the text: as §2

Chain of PDE7 (Q13946 whole entry): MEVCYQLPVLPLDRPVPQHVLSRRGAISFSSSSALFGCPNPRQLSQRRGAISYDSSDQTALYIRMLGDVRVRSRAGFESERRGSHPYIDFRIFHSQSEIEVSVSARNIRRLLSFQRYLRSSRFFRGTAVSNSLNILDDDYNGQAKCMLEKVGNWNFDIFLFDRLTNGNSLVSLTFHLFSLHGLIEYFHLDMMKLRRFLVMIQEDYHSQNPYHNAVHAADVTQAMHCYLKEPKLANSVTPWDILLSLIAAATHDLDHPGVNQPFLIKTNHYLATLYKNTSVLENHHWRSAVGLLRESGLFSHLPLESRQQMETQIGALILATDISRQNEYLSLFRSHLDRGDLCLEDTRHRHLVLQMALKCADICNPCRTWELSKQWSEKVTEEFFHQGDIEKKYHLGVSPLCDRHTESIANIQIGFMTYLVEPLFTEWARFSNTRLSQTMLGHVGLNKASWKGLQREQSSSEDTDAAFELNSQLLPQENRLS

For `CCOc1cc([C@@H](CS(C)(=O)=O)N2C(=O)c3cccc(NC(C)=O)c3C2=O)ccc1OC` [Apremilast, (+)-2-[1-(3-ethoxy-4-methoxyphenyl)-2-methylsulfonylethyl]-4-acetylaminoisoindoline-1,3-dione], the “% inhibition of PDE1” value (PDE1) was 23%, the inhibition at 10 µM (PDE6) was -6% and the IC50 [1] was 0.0735 µM. For the same compound, the IC50 (PDE7) was 20.5 µM, the “EC50, inhibition of TNF-α production in a mouse model” value (TNF-α production) was 0.05 mg/kg and the IC50 [2] was 0.077 µM.
